In patent US10582709B2, “Butyrolactones as herbicides” (FMC Corporation, priority 2015, dated 2020):

What was measured:
Assay type in all cases: in vivo
[1] = tested on: pigweed (Amaranthus retroflexus); experiment: Test A preemergence, pigweed; settings: visual rating after approx. 10 d, 0 to 100 scale, 0 no effect, 100 complete control
Source text: (§1) Seeds of plant species selected from barnyardgrass (Echinochloa crus-galli), crabgrass (large crabgrass, Digitaria sanguinalis), kochia (Kochia scoparia), ragweed (common ragweed, Ambrosia elatior), morningglory (Ipomoea spp.), velvetleaf (Abutilon theophrasti), ryegrass, Italian (Italian ryegrass, Lolium multiflorum), foxtail, giant (giant foxtail, Setaria faberii), wheat (Triticum aestivum), corn (Zea mays), and pigweed (Amaranthus retroflexus), were planted into a blend of loam soil and sand and treated preemergence with a directed soil spray using test chemicals formulated in a non-phytotoxic solvent mixture which included a surfactant. At the same time, plants selected from these crop and weed species and also blackgrass (Alopecurus myosuroides), and galium (catchweed bedstraw, Galium aparine), were planted in pots containing the same blend of loam soil and sand and treated with postemergence applications of test chemicals formulated in the same manner. Plants ranged in height from 2 to 10 cm and were in the one- to two-leaf stage for the postemergence treatment. Treated plants and untreated controls were maintained in a greenhouse for approximately 10 d, after which time all treated plants were compared to untreated controls and visually evaluated for injury. Plant response ratings, summarized in Table A, are based on a 0 to 100 scale where 0 is no effect and 100 is complete control. A dash (-) response means no test result.

kochia (Kochia scoparia) [2] = experiment: Test A postemergence, kochia; settings: visual rating after approx. 10 d, 0 to 100 scale, 0 no effect, 100 complete control
Source text: as §1

[3] = tested on: ryegrass, Italian (Italian ryegrass, Lolium multiflorum); experiment: Test A preemergence, Italian ryegrass; settings: visual rating after approx. 10 d, 0 to 100 scale, 0 no effect, 100 complete control
Source text: as §1

[4] = tested on: ryegrass, Italian (Italian ryegrass, Lolium multiflorum); experiment: Test A postemergence, Italian ryegrass; settings: visual rating after approx. 10 d, 0 to 100 scale, 0 no effect, 100 complete control
Source text: as §1

[5] = tested on: ragweed (common ragweed, Ambrosia elatior); experiment: Test A postemergence, ragweed; settings: visual rating after approx. 10 d, 0 to 100 scale, 0 no effect, 100 complete control
Source text: as §1

[6] = tested on: foxtail, giant (giant foxtail, Setaria faberii); experiment: Test A postemergence, giant foxtail; settings: visual rating after approx. 10 d, 0 to 100 scale, 0 no effect, 100 complete control
Source text: as §1

kochia (Kochia scoparia) [7] = experiment: Test A preemergence, kochia; settings: visual rating after approx. 10 d, 0 to 100 scale, 0 no effect, 100 complete control
Source text: as §1

[8] = tested on: blackgrass (Alopecurus myosuroides); experiment: Test A postemergence, blackgrass; settings: visual rating after approx. 10 d, 0 to 100 scale, 0 no effect, 100 complete control
Source text: as §1

[9] = tested on: galium (catchweed bedstraw, Galium aparine); experiment: Test A postemergence, galium; settings: visual rating after approx. 10 d, 0 to 100 scale, 0 no effect, 100 complete control
Source text: as §1

[10] = tested on: foxtail, giant (giant foxtail, Setaria faberii); experiment: Test A preemergence, giant foxtail; settings: visual rating after approx. 10 d, 0 to 100 scale, 0 no effect, 100 complete control
Source text: as §1

rice (Oryza sativa) = experiment: Test B flooded paddy test, rice; settings: applied to paddy water at 2-leaf stage, 13 to 15 d, scale 0 no effect to 100 complete control
Method: (§2) Plant species in the flooded paddy test selected from rice (Oryza sativa), sedge, umbrella (small-flower umbrella sedge, Cyperus difformis), ducksalad (Heteranthera limosa), and barnyardgrass (Echinochloa crus-galli) were grown to the 2-leaf stage for testing. At time of treatment, test pots were flooded to 3 cm above the soil surface, treated by application of test compounds directly to the paddy water, and then maintained at that water depth for the duration of the test. Treated plants and controls were maintained in a greenhouse for 13 to 15 d, after which time all species were compared to controls and visually evaluated. Plant response ratings, summarized in Table B, are based on a scale of 0 to 100 where 0 is no effect and 100 is complete control. A dash (-) response means no test result.

[11] = tested on: ducksalad (Heteranthera limosa); experiment: Test B flooded paddy test, ducksalad; settings: applied to paddy water at 2-leaf stage, 13 to 15 d, scale 0 no effect to 100 complete control
Method: as §2

[12] = tested on: barnyardgrass (Echinochloa crus-galli); experiment: Test B flooded paddy test, barnyardgrass; settings: applied to paddy water at 2-leaf stage, 13 to 15 d, scale 0 no effect to 100 complete control
Method: as §2

[13] = tested on: pigweed (Amaranthus retroflexus); experiment: Test A postemergence, pigweed; settings: visual rating after approx. 10 d, 0 to 100 scale, 0 no effect, 100 complete control
Source text: as §1

corn (Zea mays) = experiment: Test A postemergence, corn; settings: visual rating after approx. 10 d, 0 to 100 scale, 0 no effect, 100 complete control
Source text: as §1

[14] = tested on: ragweed (common ragweed, Ambrosia elatior); experiment: Test A preemergence, ragweed; settings: visual rating after approx. 10 d, 0 to 100 scale, 0 no effect, 100 complete control
Source text: as §1

[15] = tested on: sedge, umbrella (small-flower umbrella sedge, Cyperus difformis); experiment: Test B flooded paddy test, umbrella sedge; settings: applied to paddy water at 2-leaf stage, 13 to 15 d, scale 0 no effect to 100 complete control
Method: as §2

[16] = tested on: wheat (Triticum aestivum); experiment: Test A postemergence, wheat; settings: visual rating after approx. 10 d, 0 to 100 scale, 0 no effect, 100 complete control
Source text: as §1

[17] = tested on: barnyardgrass (Echinochloa crus-galli); experiment: Test A preemergence, barnyardgrass; settings: visual rating after approx. 10 d, 0 to 100 scale, 0 no effect, 100 complete control
Source text: as §1

[18] = tested on: barnyardgrass (Echinochloa crus-galli); experiment: Test A postemergence, barnyardgrass; settings: visual rating after approx. 10 d, 0 to 100 scale, 0 no effect, 100 complete control
Source text: as §1

Compound	Plant response rating, Pigweed ([1]; 125 g ai/ha)	Plant response rating, Pigweed ([1]; 500 g ai/ha)	Plant response rating, Kochia (kochia (Kochia scoparia) [2]; 125 g ai/ha)	Plant response rating, Kochia (kochia (Kochia scoparia) [2]; 500 g ai/ha)	Plant response rating, Ryegrass, Italian ([3]; 125 g ai/ha)	Plant response rating, Ryegrass, Italian ([3]; 500 g ai/ha)	Plant response rating, Ryegrass, Italian ([4]; 125 g ai/ha)	Plant response rating, Ryegrass, Italian ([4]; 500 g ai/ha)	Plant response rating, Ragweed ([5]; 125 g ai/ha)	Plant response rating, Ragweed ([5]; 500 g ai/ha)	Plant response rating, Foxtail, Giant ([6]; 125 g ai/ha)	Plant response rating, Foxtail, Giant ([6]; 500 g ai/ha)	Plant response rating, Kochia (kochia (Kochia scoparia) [7]; 125 g ai/ha)	Plant response rating, Kochia (kochia (Kochia scoparia) [7]; 500 g ai/ha)	Plant response rating, Blackgrass ([8]; 125 g ai/ha)	Plant response rating, Blackgrass ([8]; 500 g ai/ha)	Plant response rating, Galium ([9]; 125 g ai/ha)	Plant response rating, Galium ([9]; 500 g ai/ha)	Plant response rating, Foxtail, Giant ([10]; 125 g ai/ha)	Plant response rating, Foxtail, Giant ([10]; 500 g ai/ha)	other results
O=C(Nc1cccc(F)c1F)C1C(=O)OCC1c1cccc(C(F)(F)F)c1 (racemic) [Compound 12]	0	0	0	0	0	20	0	0	0	0	30	70	0	20	0	0	0	0	30	60	Plant response rating, Flood, Rice (rice (Oryza sativa); 500 g ai/ha): 0; Plant response rating, Flood, Ducksalad ([11]; 500 g ai/ha): 0; Plant response rating, Flood, Barnyardgrass ([12]; 500 g ai/ha): 0; Plant response rating, Pigweed ([13]; 125 g ai/ha): 0; Plant response rating, Pigweed ([13]; 500 g ai/ha): 0; Plant response rating, Corn (corn (Zea mays); 125 g ai/ha): 0; Plant response rating, Corn (corn (Zea mays); 500 g ai/ha): 0; Plant response rating, Ragweed ([14]; 125 g ai/ha): 0; Plant response rating, Ragweed ([14]; 500 g ai/ha): 0; Plant response rating, Flood, Sedge, Umbrella ([15]; 500 g ai/ha): 0; Plant response rating, Wheat ([16]; 125 g ai/ha): 0; Plant response rating, Wheat ([16]; 500 g ai/ha): 0; Plant response rating, Barnyardgrass ([17]; 125 g ai/ha): 20; Plant response rating, Barnyardgrass ([17]; 500 g ai/ha): 30; Plant response rating, Barnyardgrass ([18]; 125 g ai/ha): 40; Plant response rating, Barnyardgrass ([18]; 500 g ai/ha): 40
O=C(Nc1cccc(F)c1C(F)(F)F)C1C(=O)OCC1c1ccc(C(F)(F)F)cc1 (racemic) [Compound 10]	0	0	0	0	0	0	0	0	0	0	30	70	0	0	0	0	0	0	40	50	Plant response rating, Flood, Rice (rice (Oryza sativa); 250 g ai/ha): 0; Plant response rating, Flood, Rice (rice (Oryza sativa); 1000 g ai/ha): 0; Plant response rating, Flood, Ducksalad ([11]; 250 g ai/ha): 20; Plant response rating, Flood, Ducksalad ([11]; 1000 g ai/ha): 25; Plant response rating, Flood, Barnyardgrass ([12]; 250 g ai/ha): 0; Plant response rating, Flood, Barnyardgrass ([12]; 1000 g ai/ha): 0; Plant response rating, Pigweed ([13]; 125 g ai/ha): 0; Plant response rating, Pigweed ([13]; 500 g ai/ha): 0; Plant response rating, Corn (corn (Zea mays); 125 g ai/ha): 0; Plant response rating, Corn (corn (Zea mays); 500 g ai/ha): 0; Plant response rating, Ragweed ([14]; 125 g ai/ha): 0; Plant response rating, Ragweed ([14]; 500 g ai/ha): 0; Plant response rating, Flood, Sedge, Umbrella ([15]; 250 g ai/ha): 0; Plant response rating, Flood, Sedge, Umbrella ([15]; 1000 g ai/ha): 0; Plant response rating, Wheat ([16]; 125 g ai/ha): 0; Plant response rating, Wheat ([16]; 500 g ai/ha): 0; Plant response rating, Barnyardgrass ([17]; 125 g ai/ha): 0; Plant response rating, Barnyardgrass ([17]; 500 g ai/ha): 0; Plant response rating, Barnyardgrass ([18]; 125 g ai/ha): 0; Plant response rating, Barnyardgrass ([18]; 500 g ai/ha): 0
